# Values quoted from earlier work, collected in patent US6830755B2, “Method for relaxing human beings using personal care compositions” (Johnson & Johnson Consumer Companies, Inc., priority 1999, dated 2004).
# System: salivary cortisol
# Details: exposure to fragrance before stressful arithmetic
structure (smiles),measurement,value
Cc1c[nH]c2ccccc12 [skatole],effect on stress induced release of cortisol (in words),had the opposite effect
